From ChEMBL document CHEMBL1156842, “Discovery of 5-aryloxy-2,4-thiazolidinediones as potent GPR40 agonists” (Bioorg Med Chem Lett, 2010)
Calls of active or inactive are those of the source. No cut-off for these calls is given here.

Test system: Mus musculus
Assay: Reduction in glucose excursion in po dosed lean mouse pretreated 1 hr before dextrose challenge by intraperitoneal glucose tolerance test
Format: functional, organism-based
Details: not given
With `Cc1cc(Oc2ncc(C(F)(F)F)cc2Cl)ccc1CC1SC(=O)NC1=O` (stereo not drawn) the Activity was “Dose-dependent effect”.

Test system: not listed separately
Assay: Tmax in mouse at 2 mg/kg
Format: ADME, organism-based
Parameters: dose 2 mg/kg
Details: in vivo
For `Cc1cc(Oc2ncc(C(F)(F)F)cc2Cl)ccc1CC1SC(=O)NC1=O` (stereo not drawn), the Tmax was 3 h.

Test system: Mus musculus
Assay: Reduction in glucose excursion in lean mouse at 3 to 100 mg/kg, po pretreated 1 hr before dextrose challenge by intraperitoneal glucose tolerance test
Details: not given
For `Cc1cc(Oc2ncc(C(F)(F)F)cc2Cl)ccc1CC1SC(=O)NC1=O` (stereo not drawn), the Activity was “Active”.

Test system: not listed separately
Assay: Plasma concentration in lean mouse at 30 mg/kg, po pretreated 1 hr before dextrose challenge measured after 2 hrs
Format: ADME, organism-based
Parameters: dose 30 mg/kg, route oral
Details: not given
`Cc1cc(Oc2ncc(C(F)(F)F)cc2Cl)ccc1CC1SC(=O)NC1=O` (stereo not drawn) showed a concentration at 2 h of 37 µM.

Test system: not listed separately
Assay: Half life in mouse at 2 mg/kg
Format: ADME, organism-based
Parameters: dose 2 mg/kg
Details: in vivo
`Cc1cc(Oc2ncc(C(F)(F)F)cc2Cl)ccc1CC1SC(=O)NC1=O` (stereo not drawn) showed a half-life of 5.1 h.

Target: T1, Free fatty acid receptor 1 (Homo sapiens, UniProt O14842)
T1 sequence (O14842 whole entry): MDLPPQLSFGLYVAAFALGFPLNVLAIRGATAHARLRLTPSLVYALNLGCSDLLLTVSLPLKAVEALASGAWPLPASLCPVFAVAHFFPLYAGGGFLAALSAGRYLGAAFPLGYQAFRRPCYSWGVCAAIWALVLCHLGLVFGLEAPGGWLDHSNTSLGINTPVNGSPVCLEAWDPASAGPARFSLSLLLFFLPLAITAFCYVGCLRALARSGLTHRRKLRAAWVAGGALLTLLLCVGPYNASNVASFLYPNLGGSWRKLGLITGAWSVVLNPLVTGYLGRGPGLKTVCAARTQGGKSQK
Assay: Agonist activity at human GPR40 at 40 uM by FLIPR assay in presence of 1% BSA
Format: functional
Details: not given
With `O=C1NC(=O)C(Cc2ccc(Oc3ccc(C(F)(F)F)cc3Cl)c3ccccc23)S1` (stereo not drawn) the Activity was 46%.
For `O=C1COC(Cc2ccc(Oc3ccc(Cl)cc3Cl)cc2)C(=O)N1` (stereo not drawn), the Activity was 23%.
For `CN1C(=O)NC(=O)C1Cc1ccc(Oc2ccc(Cl)cc2Cl)cc1` (stereo not drawn), the Activity was 2%.
For `O=C1CCC(Cc2ccc(Oc3ccc(Cl)cc3Cl)cc2)C(=O)N1` (stereo not drawn), the Activity was 6%.

Test system: not listed separately
Assay: Clearance in mouse at 2 mg/kg
Format: ADME, organism-based
Parameters: dose 2 mg/kg
Details: in vivo
With `Cc1cc(Oc2ncc(C(F)(F)F)cc2Cl)ccc1CC1SC(=O)NC1=O` (stereo not drawn) the clearance was 1.9 mL/min/kg.

Target: T1, Free fatty acid receptor 1
Assay: Agonist activity at human GPR40 by FLIPR assay in presence of 1% BSA
Format: functional
Details: read-out: EC50
`O=C1NC(=O)C(Cc2ccc(Oc3ccc(C(F)(F)F)cc3Cl)cc2)S1` (stereo not drawn) showed an EC50 of 78 nM.
`Cc1cccnc1Oc1ccc(CC2SC(=O)NC2=O)cc1` (stereo not drawn) showed an EC50 of 1090 nM.
Compound `O=C1NC(=O)C(Cc2ccc(Oc3ccccc3Cl)cc2)S1` (stereo not drawn) has an EC50 of 1190 nM.
For `Cc1ccnc(Oc2ccc(CC3SC(=O)NC3=O)cc2)c1` (stereo not drawn), the EC50 was 4280 nM.
In the case of `O=C1NC(=O)C(Cc2ccc(Sc3ccccc3)cc2)S1` (stereo not drawn), the EC50 is reported as 5060 nM.
Work on `O=C1NC(=O)C(Cc2ccc(-c3ccccc3)cc2)S1` (stereo not drawn) yielded an EC50 of 2220 nM.
`Cc1cc(Oc2ccc(CC3SC(=O)NC3=O)cc2)cc(C)c1C#N` (stereo not drawn) gave an EC50 of 120 nM.
Compound `O=C1NC(=O)C(Cc2ccc(Cc3ccccc3)cc2)S1` (stereo not drawn) has an EC50 of 9280 nM.
In the case of `O=C1NC(=O)C(Cc2ccc(Oc3ccc(F)cc3)cc2)S1` (stereo not drawn), the EC50 is reported as 480 nM.
Compound `O=C1NC(=O)C(Cc2ccc(Oc3cc(Cl)cc(Cl)c3)cc2)S1` (stereo not drawn) has an EC50 of 207 nM.
`Cc1cc(C)cc(Oc2ccc(CC3SC(=O)NC3=O)cc2)c1` (stereo not drawn) showed an EC50 of 96 nM.
Compound `O=C1NC(=O)C(Cc2ccccc2Oc2ccccc2)S1` (stereo not drawn) has an EC50 of 11300 nM.
For `O=C1NC(=O)C(Cc2ccc(Oc3cccc(C(F)(F)F)n3)cc2)S1` (stereo not drawn), the EC50 was 1630 nM.
In the case of `Cc1cccc(Oc2ccc(CC3SC(=O)NC3=O)cc2)c1` (stereo not drawn), the EC50 is reported as 203 nM.
`COc1cc(Oc2ncc(C(F)(F)F)cc2Cl)ccc1CC1SC(=O)NC1=O` (stereo not drawn) gave an EC50 of 13800 nM.
With `O=C1CC(Cc2ccc(Oc3ccc(Cl)cc3Cl)cc2)C(=O)N1` (stereo not drawn) the EC50 was 6450 nM.
`Cc1cc(Oc2ncc(C(F)(F)F)cc2Cl)ccc1CC1SC(=O)NC1=O` (stereo not drawn) showed an EC50 of 10 nM.
Work on `O=C1NC(=O)C(Cc2cccc(Oc3ccccc3)c2)S1` (stereo not drawn) yielded an EC50 of 4700 nM.
`Cc1cc(C(F)(F)F)cc(Oc2ccc(CC3SC(=O)NC3=O)cc2)n1` (stereo not drawn) gave an EC50 of 218 nM.
`O=C1NC(=O)C(Cc2ccc(Oc3ncc(C(F)(F)F)cc3Cl)cc2Cl)S1` (stereo not drawn) gave an EC50 of 26 nM.
`O=C1NC(=O)C(Cc2ccc(Oc3cc4ccccc4cn3)cc2)S1` (stereo not drawn) gave an EC50 of 144 nM.
For `Cc1cc(Oc2ccc(C(F)(F)F)cc2Cl)ccc1CC1SC(=O)NC1=O` (stereo not drawn), the EC50 was 18 nM.
For `COc1cc(Oc2ccc(Cl)cc2Cl)ccc1CC1SC(=O)NC1=O` (stereo not drawn), the EC50 was 1410 nM.
In the case of `Cc1cccc(Oc2ccc(CC3SC(=O)NC3=O)cc2)n1` (stereo not drawn), the EC50 is reported as 2620 nM.
For `O=C1NC(=O)C(Cc2ccc(Oc3ncc(C(F)(F)F)cc3Cl)c3ccccc23)S1` (stereo not drawn), the EC50 was 23600 nM.
Compound `O=C1NC(=O)C(Cc2ccc(C(=O)c3ccccc3)cc2)S1` (stereo not drawn) has an EC50 of 5300 nM.
In the case of `Cc1cccc(Oc2ccc(CC3SC(=O)NC3=O)cc2)c1C` (stereo not drawn), the EC50 is reported as 334 nM.
Compound `O=C1NC(=O)C(Cc2ccc(Oc3ccccc3)cc2)S1` (stereo not drawn) has an EC50 of 307 nM.
With `O=C1NC(=O)C(Cc2ccc(Oc3ccc(C(F)(F)F)cn3)cc2)S1` (stereo not drawn) the EC50 was 558 nM.
With `O=C1NC(=O)C(Cc2ccc(Oc3cccc(Cl)c3)cc2)S1` (stereo not drawn) the EC50 was 318 nM.
For `Cc1ccc(Oc2ccc(CC3SC(=O)NC3=O)cc2)cc1C` (stereo not drawn), the EC50 was 727 nM.
`O=C1NC(=O)C(Cc2ccc(Oc3ncccc3C(F)(F)F)cc2)S1` (stereo not drawn) showed an EC50 of 2290 nM.
`Cc1ccc(Oc2ccc(CC3SC(=O)NC3=O)cc2)c(C)c1` (stereo not drawn) gave an EC50 of 121 nM.
Compound `Cc1cc(Oc2ccc(CC3SC(=O)NC3=O)cc2)nc(C(F)(F)F)c1` (stereo not drawn) has an EC50 of 688 nM.
Work on `O=C1NC(=O)C(Cc2ccc(Oc3cccc4ccccc34)cc2)S1` (stereo not drawn) yielded an EC50 of 135 nM.
Work on `O=C1NC(=O)C(Cc2ccc(Oc3ccc(Cl)cc3Cl)cc2C(F)(F)F)S1` (stereo not drawn) yielded an EC50 of 88 nM.
Compound `Cc1ccc(C)c(Oc2ccc(CC3SC(=O)NC3=O)cc2)c1` (stereo not drawn) has an EC50 of 238 nM.
In the case of `Cc1cc(Oc2ncc(C(F)(F)F)cc2Cl)cc(C)c1CC1SC(=O)NC1=O` (stereo not drawn), the EC50 is reported as 5450 nM.
`O=C1NC(=O)C(Cc2ccc(Oc3ncc(Cl)cc3Cl)cc2)S1` (stereo not drawn) gave an EC50 of 90 nM.
`O=C1NC(=O)C(Cc2ccc(Oc3ncc(Cl)cc3Cl)cc2Cl)S1` (stereo not drawn) gave an EC50 of 63 nM.
`O=C1NC(=O)C(Cc2ccc(Oc3ccc(Cl)cc3Cl)cc2)S1` (stereo not drawn) gave an EC50 of 101 nM.
`O=C1NC(=O)C(Cc2ccc(Oc3ccc(Cl)cn3)cc2)S1` (stereo not drawn) showed an EC50 of 1870 nM.
For `O=C1NC(=O)C(Cc2ccc(Oc3ccc(Cl)cc3Cl)cc2)O1` (stereo not drawn), the EC50 was 4020 nM.
`O=C1NC(=O)C(Cc2ccc(/C=C/c3ccccc3)cc2)S1` (stereo not drawn) showed an EC50 of 2090 nM.
`O=C1NC(=O)C(Cc2ccc(Oc3ccc(Cl)cc3)cc2)S1` (stereo not drawn) gave an EC50 of 240 nM.
Work on `O=C1NC(=O)C(Cc2ccc(OCc3ccccc3)cc2)S1` (stereo not drawn) yielded an EC50 of 6180 nM.
`Cc1ccc(Oc2ccc(CC3SC(=O)NC3=O)cc2)cc1` (stereo not drawn) gave an EC50 of 547 nM.
With `O=C1NC(=O)C(Cc2ccc(CCc3ccccc3)cc2)S1` (stereo not drawn) the EC50 was 1080 nM.
`O=C1NC(=O)C(Cc2ccc(Oc3ncc(C(F)(F)F)cc3Cl)cc2)S1` (stereo not drawn) showed an EC50 of 69 nM.
For `Cc1ccccc1Oc1ccc(CC2SC(=O)NC2=O)cc1` (stereo not drawn), the EC50 was 124 nM.
`O=C1NC(=O)C(Cc2ccc(Oc3cc(C(F)(F)F)ccn3)cc2)S1` (stereo not drawn) gave an EC50 of 237 nM.
With `Cc1ccc(Oc2ccc(CC3SC(=O)NC3=O)cc2)nc1` (stereo not drawn) the EC50 was 4470 nM.

Same assay, conditions: read-out: pEC50 (converted)
`Cc1nc(-c2ccc(C(F)(F)F)cc2)sc1CNc1ccc(C2CC2C(=O)O)cc1` (stereo not drawn) gave an EC50 of 10 nM.
With `O=C(O)CCc1ccc(NCc2cccc(Oc3ccccc3)c2)cc1` [GW9508] the EC50 was 100 nM.

Test system: Mus musculus
Assay: Reduction in glucose excursion in GPR40-/- lean mouse assessed as inhibition of glucose AUC at 30 mg/kg, po pretreated 1 hr before dextrose challenge by intraperitoneal glucose tolerance test
Format: functional, organism-based
Parameters: dose 30 mg/kg
Details: not given
With `Cc1cc(Oc2ncc(C(F)(F)F)cc2Cl)ccc1CC1SC(=O)NC1=O` (stereo not drawn) the Activity was “inactive”.

Test system: Mus musculus
Assay: Reduction in glucose excursion in lean mouse assessed as inhibition of glucose AUC at 30 mg/kg, po pretreated 1 hr before dextrose challenge by intraperitoneal glucose tolerance test
Format: functional
Parameters: scale not given: the % may be the effect or the level left
Details: not given
Compound `Cc1cc(Oc2ncc(C(F)(F)F)cc2Cl)ccc1CC1SC(=O)NC1=O` (stereo not drawn) has an Activity of 73%.

Test system: not listed separately
Assay: Cmax in mouse at 2 mg/kg
Format: ADME, organism-based
Parameters: dose 2 mg/kg
Details: in vivo
With `Cc1cc(Oc2ncc(C(F)(F)F)cc2Cl)ccc1CC1SC(=O)NC1=O` (stereo not drawn) the Cmax was 1.4 µM.

Test system: not listed separately
Assay: Oral bioavailability in mouse at 2 mg/kg
Format: ADME, organism-based
Details: in vivo
`Cc1cc(Oc2ncc(C(F)(F)F)cc2Cl)ccc1CC1SC(=O)NC1=O` (stereo not drawn) showed a bioavailability of 100%.
